According to patent US5872115A, “2-ureido-benzamide derivatives” (Grelan Pharmaceutical Co. Ltd., priority 1995, dated 1999):

How the values were obtained:
ACAT of HepG2 microsome = assay: In-vitro test using Hep G2 microsome (ACAT inhibition); format: biochemical, human
Method: (1) In-vitro Test Using Hep G2 Microsome
ACAT enzyme fraction was prepared from microsome of human derived hepatoma Hep G2 cell according to Sandra's method [Journal of Lipid Research, 27, 875 (1986)].
Microsome was suspended at a concentration of 200 μg protein/20 μl in 0.1M phosphate buffer solution (pH7.4) and the suspension was preincubated at 37° C. for 5 minutes after addition of 10 μl of each test compound dissolved in 0.1M phosphate buffer solution containing bovine serum albmin (BSA). Then, the reaction was initiated by the addition of 5 nmoles of labeled [^14 C]-oleoyl-CoA dissolved in 20 μl of the said phosphate buffer solution containing BSA and the reaction was stopped by the addition of 20 μl of 2N HCl after 10 minutes. [^14 C] cholesterol-oleate formed was separated by thin-layer chromatography and the radioactivity was counted with liquid scintillation counter.
(§1) ACAT inhibitory activities of the test compounds were shown as IC50 values.

ACAT of THP-1 cells = molecular target: T1, ACAT of THP-1 cells (Homo sapiens, UniProt P35610); assay: In-vitro test using THP-1 intact cell (ACAT inhibition); format: cell-based; conditions: read-out: IC50 THP1 (intact cell)
T1 construct: differentiated into macrophage-like cells by phorbol ester; endogenous in cells; host or cells: THP-1 (human leukemia), intact cells differentiated by phorbol ester
T1 sequence (P35610 1-550): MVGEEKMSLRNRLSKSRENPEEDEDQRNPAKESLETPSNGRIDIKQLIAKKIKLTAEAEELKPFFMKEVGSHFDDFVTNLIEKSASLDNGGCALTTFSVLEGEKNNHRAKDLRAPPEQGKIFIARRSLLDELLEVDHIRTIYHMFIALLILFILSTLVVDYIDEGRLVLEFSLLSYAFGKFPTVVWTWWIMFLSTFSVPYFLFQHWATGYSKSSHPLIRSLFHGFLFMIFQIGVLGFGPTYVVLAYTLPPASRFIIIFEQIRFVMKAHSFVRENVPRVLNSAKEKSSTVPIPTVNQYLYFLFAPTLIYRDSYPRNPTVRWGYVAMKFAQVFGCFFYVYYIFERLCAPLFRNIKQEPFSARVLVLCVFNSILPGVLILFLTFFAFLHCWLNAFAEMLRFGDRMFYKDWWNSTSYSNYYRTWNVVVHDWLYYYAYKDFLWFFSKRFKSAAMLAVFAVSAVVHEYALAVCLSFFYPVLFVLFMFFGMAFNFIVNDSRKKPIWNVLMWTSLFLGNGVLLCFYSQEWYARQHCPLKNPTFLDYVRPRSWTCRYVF
Method: (2) In-vitro Test Using THP-1 Intact Cell
About 2 million cells of human leukemia cell line, THP-1 were seeded in a well with 2 ml of medium and differentiated into macrophage-like cells by phorbol ester. Then, the cells were washed with phosphate-buffered saline (PBS) solution and the medium was replaced by fresh medium supplemented with 10% of lipoprotein-deficient serum. After the addition of each test compound dissolved in dimethyl sulfoxide and 100 μg protein-containing human low density lipoprotein (LDL), the reaction was initiated by the addition of 10 nmoles of labeled [^14 C]oleic acid and 10 nmoles of oleic acid complexed with BSA in PBS solution. After 22 hours, the reaction was stopped by removal the medium and CHCl3 -MeOH (2:1) were added to the cell suspension in order to extract lipids.
Intracellular [^14 C] cholesterol-oleate formed was separated by thin-layer chromatography and the radioactivity was counted with lipid scintillation counter.
as §1

[1] = Acute toxicity, male ICR strain mouse; format: in vivo; conditions: 1000 mg/kg orally, seven days after administration
Method: (1) Acute toxicity: Nine compounds (Example Nos. 1, 2, 5, 6, 12, 19, 28, 31 and 45) were tested by using male ICR strain mouse weighing 23.0±0.7 g.

THP-1 microsomal ACAT [2] = molecular target: T2, THP-1 microsomal ACAT (Homo sapiens, UniProt P35610); assay: In vitro test using THP-1 microsome (ACAT inhibition); format: biochemical; conditions: THP-1 microsome; read-out: IC50 THP1 microsome
T2 construct: ACAT enzyme fraction was prepared from microsome of human leukemia THP-1 cell; endogenous in cells; host or cells: THP-1 (human leukemia), microsomes
T2 sequence (P35610 1-550): T1 sequence (P35610 1-550)
Method: (4) In Vitro Test Using THP-1 Microsome
Then, the reaction was initiated by the addition of 5 nmoles of labeled [^14 C] oleoyl-CoA dissolved in 20 μl of said phosphate buffer solution containing BSA and the reaction was stopped by the addition of 20 μl of 2N HCl after 10 minutes. [^14 C] cholesterol-oleate formed was separated by thin-layer chromatography and the radioactivity was counted with liquid scintillation counter.

ACAT of macrophages = assay: In vivo test using peritoneal macrophages in C57BL/6J mice (ACAT inhibition); parameters: species or system mouse; conditions: female C57BL/6J mice, 30 mg/kg/day per os for 4 days
Method: (6) In Vivo Test Using Peritoneal Macrophages in C57BL/6J Mice
A standard pellet diet fed female C57BL/6J mice were administered at 10 a.m. per os 30 mg/kg/day of oral suspension (1% CMC-Na 0.2% Tween 80) for 4 days. Thioglycollate and [^14 C] cholesterol were injected […], mice were sacrificed for the collection of peritoneal macrophages. Lipid was extracted, formed [^14 C] cholesterol-ester was separated by thin-layer chromatography and radioactivity was counted as described above in method (3).
In vivo ACAT inhibitory activities on macrophages were expressed as percentage of inhibition compared to control group.

THP-1 microsomal ACAT [3] = molecular target: T2, THP-1 microsomal ACAT; assay: Bioavailability assessment of ACAT inhibitors by their ex vivo activity (serum of dosed mice on THP-1 microsomal ACAT); format: in vivo
Method: (5) Bioavailability Assessment of ACAT Inhibitors by Their <<ex vivo>> Activity
[…] Blood samples were collected 0.5, 1, 1.5, 2, 6 hour postdose. Serum were harvested after gentle centrifugation and stored at -20.
The following day, 10 μl serum were preincubated at 37 for 5 minutes with 20 μl of THP-1 microsomal ACAT and then incubated 10 minutes with 20 μl of radiolabeled oleoyl-CoA as described above in method (4). The serum is used instead of the drug solution.
ACAT inhibitory activities of the test compounds were shown as maximum inhibition percentages (Imax).

[4] = female mice, 30 mg/kg per os, 1% CMC-Na 0.2% Tween 80, maximum inhibition by serum

Compound: CCCCCCCNC(=O)Nc1ccccc1C(=O)NCCC1CCN(C(c2ccccc2)c2ccccc2)CC1 [Example 28, 2-(N'-n-Heptylureido)-N-[2-(1-diphenylmethylpiperidin-4-yl)ethyl]benzamide]
- IC50 (ACAT of HepG2 microsome): 1200 nM
- IC50 (ACAT of THP-1 cells): 100 nM
- macroscopic changes on any organs at autopsy [1]: no macroscopic changes were observed

Compound: CCCCNC(=O)Nc1ccc(N2CCOCC2)cc1C(=O)NCC1CCN(C(c2ccccc2)c2ccccc2)CC1 [Example 70, 2-(N'-n-Butylureido)-5-(morpholin-4-yl)-N-[(1-diphenylmethylpiperidin-4-yl)methyl]-benzamide]
- IC50 (THP-1 microsomal ACAT [2]): 60 nM
- Inhibition rate (macrophages) (ACAT of macrophages; Experiment 2): 73.0%

Compound: CCCCNC(=O)Nc1ccc(N(C)C)cc1C(=O)NCC1CCN(C(c2ccccc2)c2ccccc2)CC1 [Example 63, 2-(N'-n-Butylureido)-5-dimethylamino-N-[(1-diphenylmethylpiperidin-4-yl)-methyl]-benzamide]
- IC50 (THP-1 microsomal ACAT [2]): 50 nM
- Imax Ex vivo (THP-1 microsomal ACAT [3]; [4]): 68.52%
- Inhibition rate (macrophages) (ACAT of macrophages; Experiment 1): 72.3%
- Inhibition rate (macrophages) (ACAT of macrophages; Experiment 2): 61.0%

Compound: CCCCCNC(=O)Nc1ccccc1C(=O)NCCC1CCN(C(c2ccccc2)c2ccccc2)CC1 [Example 29, 2-(N'-n-Pentylureido)-N-[2-(1-diphenylmethylpiperidin-4-yl)ethyl]benzamide]
- IC50 (ACAT of HepG2 microsome): 1600 nM
- IC50 (ACAT of THP-1 cells): 200 nM

Compound: CCCCCCNC(=O)Nc1ccccc1C(=O)NCCC1CCN(C(c2ccccc2)c2ccccc2)CC1 [Example 30, 2-(N'-n-Hexylureido)-N-[2-(1-diphenylmethylpiperidin-4-yl)ethyl]benzamide]
- IC50 (ACAT of HepG2 microsome): 1200 nM
- IC50 (ACAT of THP-1 cells): 200 nM

Compound: CCCCCCCCNC(=O)Nc1ccccc1C(=O)NCC1CCN(C(c2ccccc2)c2ccccc2)CC1 [Example 6, 2-(N'-n-Octylureido)-N-[(1-diphenylmethylpiperidin-4-yl)methyl]benzamide]
- IC50 (ACAT of HepG2 microsome): 1600 nM
- IC50 (ACAT of THP-1 cells): 50 nM
- macroscopic changes on any organs at autopsy [1]: no macroscopic changes were observed

Compound: CCCCCCCNC(=O)Nc1ccc(N(C)C)cc1C(=O)NC1CCN(C(c2ccccc2)c2ccccc2)CC1 [Example 31, 2-(N'-n-Heptylureido)-5-dimethylamino-N-(1-diphenylmethylpiperidin-4-yl)-benzamide]
- IC50 (ACAT of HepG2 microsome): 800 nM
- IC50 (ACAT of THP-1 cells): 200 nM
- macroscopic changes on any organs at autopsy [1]: no macroscopic changes were observed

Compound: CCCCCCCNC(=O)Nc1ccc(O)cc1C(=O)NCCC(c1ccccc1)c1ccccc1 [Example 19, 2-(N'-n-Heptylureido)-5-hydroxy-N-(3,3-diphenylpropyl)benzamide]
- IC50 (ACAT of HepG2 microsome): 3600 nM
- IC50 (ACAT of THP-1 cells): 100 nM
- macroscopic changes on any organs at autopsy [1]: no macroscopic changes were observed

Compound: CCCCNC(=O)Nc1ccccc1C(=O)NCC1CCN(C(c2ccccc2)c2ccccc2)CC1 [Example 2, 2-(N'-n-Butylureido)-N-[(1-diphenylmethylpiperidin-4-yl)methyl]benzamide]
- IC50 (ACAT of HepG2 microsome): 1000 nM
- IC50 (ACAT of THP-1 cells): 100 nM
- macroscopic changes on any organs at autopsy [1]: no macroscopic changes were observed

Compound: CCCCCCCNC(=O)Nc1ccccc1C(=O)NC1CCN(C(c2ccccc2)c2ccccc2)CC1 [Example 45, 2-(N'-n-Heptylureido)-N-(1-diphenylmethylpiperidin-4-yl)benzamide]
- IC50 (ACAT of HepG2 microsome): 2800 nM
- IC50 (ACAT of THP-1 cells): 800 nM
- macroscopic changes on any organs at autopsy [1]: no macroscopic changes were observed

Compound: CCCCCCCCCCNC(=O)Nc1ccccc1C(=O)NC1CCN(C(c2ccccc2)c2ccccc2)CC1 [Example 12, 2-(N'-n-Decylureido)-N-(1-diphenylmethylpiperidin-4-yl)benzamide]
- IC50 (ACAT of HepG2 microsome): 8000 nM
- IC50 (ACAT of THP-1 cells): 700 nM
- macroscopic changes on any organs at autopsy [1]: no macroscopic changes were observed

Compound: CCCNC(=O)Nc1ccc(N2CCOCC2)cc1C(=O)NCC1CCN(C(c2ccccc2)c2ccccc2)CC1 [Example 71, 5-(Morpholin-4-yl)-2-(N'-n-propylureido)-N-[(1-diphenylmethylpiperidin-4-yl)methyl]-benzamide]
- IC50 (THP-1 microsomal ACAT [2]): 90 nM
- Imax Ex vivo (THP-1 microsomal ACAT [3]; [4]): 81.1%
- Inhibition rate (macrophages) (ACAT of macrophages; Experiment 2): 73.5%

Compound: CCCNC(=O)Nc1ccc(N(C)C)cc1C(=O)NCC1CCN(C(c2ccccc2)c2ccccc2)CC1 [Example 66, 5-Dimethylamino-2-(N'-n-propylureido)-N-[(1-diphenylmethylpiperidin-4-yl)methyl]-benzamide]
- IC50 (THP-1 microsomal ACAT [2]): 80 nM
- Imax Ex vivo (THP-1 microsomal ACAT [3]; [4]): 77.59%
- Inhibition rate (macrophages) (ACAT of macrophages; Experiment 1): 73.5%

Compound: CCCCCCCNC(=O)Nc1ccc(OC)cc1C(=O)NCC1CCN(C(c2ccccc2)c2ccccc2)CC1 [Example 81, 2-(N'-n-Heptylureido)-5-methoxy-N-[(1-diphenylmethylpiperidin-4-yl)methyl]benzamide]
- IC50 (THP-1 microsomal ACAT [2]): 40 nM
- Imax Ex vivo (THP-1 microsomal ACAT [3]; tested at 100 mg/kg in a suspension of 0.5% CMC-Na (footnote *)): 74.11%

Compound: CCCCCCCNC(=O)Nc1ccc(-n2cccn2)cc1C(=O)NCC1CCN(C(c2ccccc2)c2ccccc2)CC1 [Example 84, 2-(N'-n-Heptylureido)-5-(pyrazol-1-yl)-N-[(1-diphenylmethylpiperidin-4-yl)-methyl]-benzamide]
- IC50 (THP-1 microsomal ACAT [2]): 100 nM
- Imax Ex vivo (THP-1 microsomal ACAT [3]; [4]): 5.75%

Compound: CCCCCNC(=O)Nc1ccccc1C(=O)NCC1CCN(C(c2ccccc2)c2ccccc2)CC1 [Example 3, 2-(N'-n-Pentylureido)-N-[(1-diphenylmethylpiperidin-4-yl)methyl]benzamide]
- IC50 (ACAT of HepG2 microsome): 900 nM
- IC50 (ACAT of THP-1 cells): 100 nM

Compound: CCCCCCCNC(=O)Nc1ccc(N(C)C(C)=O)cc1C(=O)NCC1CCN(C(c2ccccc2)c2ccccc2)CC1 [Example 91, 5-(N-Acetyl-N-methyl)amino-2-(N'-n-heptylureido)-N-[(1-diphenylmethylpiperidin-4-yl)-methyl]benzamide]
- IC50 (THP-1 microsomal ACAT [2]): 80 nM
- Imax Ex vivo (THP-1 microsomal ACAT [3]; [4]): 61.47%

Compound: CCCCCCNC(=O)Nc1ccccc1C(=O)NCC1CCN(C(c2ccccc2)c2ccccc2)CC1 [Example 4, 2-(N'-n-Hexylureido)-N-[(1-diphenylmethylpiperidin-4-yl)methyl]benzamide]
- IC50 (ACAT of HepG2 microsome): 900 nM
- IC50 (ACAT of THP-1 cells): 90 nM
